Values of other authors, collected in US10709795B2, “Method for delivering pharmaceutical nanoparticles to cancer cells” (National Guard Health Affairs, priority 2017, dated 2020).
Where two headings read alike, the source gives them in different places.

What was measured:
[1] = not given; remark: listed apart in the source
[2] = Grades 1-4, N = 2448, 1st line of this name
[3] = Grades 1-4, N = 2448, 2nd line of this name

Structure (SMILES): N#Cc1ccc(C(c2ccc(C#N)cc2)n2cncn2)cc1 [Femara, Letrozole]
- Endometrial Hyperplasia/Cancer, % (Grades 1-4, 1st line of this name): 0.8%
- Endometrial Hyperplasia/Cancer, % (Grades 1-4, 2nd line of this name): 0.3%
- Alopecia, % (Grades 1-4, N = 2448): 3.4%
- Angina, % (Grades 1-4, N = 2448): 1.3%
- Angine, % (Grades 1-4, N = 2448): 1.1%
- Anorexia, % (Grades 1-4, N = 2448): 1.5%
- Arthralgia/Arthritis, % (Grades 1-4, N = 2448): 25.2%
- Back pain, % (Grades 1-4, N = 2448): 5.1%
- Bone Pain, % (Grades 1-4, N = 2448): 5.0%
- Breast Pain, % (Grades 1-4, N = 2448): 2.0%
- Cataract, % (Grades 1-4, N = 2448): 2.0%
- Constipation, % (Grades 1-4, N = 2448): 2.0%
- Depression, % (Grades 1-4, N = 2448): 4.9%
- Dizziness/Light headedness, % (Grades 1-4, N = 2448): 3.4%
- Edema, % (Grades 1-4, N = 2448): 6.7%
- Endometrial proliferation Disorders, % (Grades 1-4, N = 2448): 0.3%
- Fatigue (Lethargy, Malaise, Asthenia), % (Grades 1-4, N = 2448): 9.6%
- Headache, % (Grades 1-4, N = 2448): 4.3%
- Hot Flashes/Flushes, % (Grades 1-4, N = 2448): 33.5%
- Hypercholesterolemia, % (Grades 1-4, N = 2448): 52.3%
- Myalgia, % (Grades 1-4, N = 2448): 8.9%
- Myocardial Ischemia, % (Grades 1-4, N = 2448): 0.2%
- Nausea, % (Grades 1-4, N = 2448): 11.6%
- Night Sweats, % (Grades 1-4, N = 2448): 25.2%
- Osteopenia, % (Grades 1-4, N = 2448): 3.6%
- Osteoporosis NOS, % (Grades 1-4, N = 2448): 5.1%
- Other Endometrial Disorders, % (Grades 1-4, N = 2448): <0.1%
- Pain in extremity, % (Grades 1-4, N = 2448): 4.2%
- Pts with any adverse event, % (Grades 1-4, N = 2448): 94.4%
- Vaginal Bleeding, % (Grades 1-4, N = 2448): 5.2%
- Vaginal Irritation, % (Grades 1-4, N = 2448): 4.5%
- Vomiting, % (Grades 1-4, N = 2448): 3.3%
- Weight Decrease, % (Grades 1-4, N = 2448): 5.7%
- Weight Increase, % (Grades 1-4, N = 2448): 13.8%
- Bone Fractures, % [2]: 14.6%
- Cerebrovascular Accident, % [2]: 2.1%
- Myocardial Infarction, % [2]: 1.0%
- Other Cardiovascular1, % [2]: 10.6%
- Second Malignancies, % [2]: 2.2%
- Thromboembolic Event, % [2]: 2.1%
- Bone Fractures, % [3]: 10.1%
- Cerebrovascular Accident, % [3]: 2.9%
- Myocardial Infarction, % [3]: 1.5%
- Other Cardiovascular1, % [3]: 12.7%
- Second Malignancies, % [3]: 4.2%
- Thromboembolic Event, % [3]: 2.9%
- Anorexia, % (Grades 3-4, N = 2448): <0.1%
- Arthralgia/Arthritis, % (Grades 3-4, N = 2448): 3.5%
- Back pain, % (Grades 3-4, N = 2448): 0.3%
- Bone Pain, % (Grades 3-4, N = 2448): 0.2%
- Breast Pain, % (Grades 3-4, N = 2448): <0.1%
- Cataract, % (Grades 3-4, N = 2448): 0.7%
- Constipation, % (Grades 3-4, N = 2448): 0.1%
- Depression, % (Grades 3-4, N = 2448): 0.7%
- Dizziness/Light headedness, % (Grades 3-4, N = 2448): <0.1%
- Edema, % (Grades 3-4, N = 2448): 0.1%
- Fatigue (Lethargy, Malaise, Asthenia), % (Grades 3-4, N = 2448): 0.2%
- Headache, % (Grades 3-4, N = 2448): 0.4%
- Hypercholesterolemia, % (Grades 3-4, N = 2448): 0.4%
- Myalgia, % (Grades 3-4, N = 2448): 0.7%
- Nausea, % (Grades 3-4, N = 2448): 0.2%
- Osteoporosis NOS, % (Grades 3-4, N = 2448): 0.4%
- Pain in extremity, % (Grades 3-4, N = 2448): 0.1%
- Pts with any adverse event, % (Grades 3-4, N = 2448): 25.9%
- Vaginal Bleeding, % (Grades 3-4, N = 2448): <0.1%
- Vaginal Irritation, % (Grades 3-4, N = 2448): <0.1%
- Vomiting, % (Grades 3-4, N = 2448): 0.1%
- Weight Decrease, % (Grades 3-4, N = 2448): 0.3%
- Weight Increase, % (Grades 3-4, N = 2448): 1.1%
- water solubility (in words) [1]: water insoluble
